Where a name gives a salt, the structure may show the parent alone.
Assays:
Details in all cases: HepG2, doxorubicin HCl 25 nM, standard 11
abcB7 = experiment: DT1 microarray drug screening, drug-treated HepG2: abcB7; assay type: cell-based, human
Method: (§1) The labelled cDNA target preparation was thawed and the 150 μl added to 850 ul hybridisation buffer (500 mM sodium Phosphate pH 6.0, 1% SDS, 1% BSA, 1 mM EDTA) in a 1.5 ml microtube and heated at 95° C. for 10 min.

abcG1 = experiment: DT1 microarray drug screening, drug-treated HepG2: abcG1; assay type: cell-based, human
Method: as §1

abcA12 = experiment: DT1 microarray drug screening, drug-treated HepG2: abcA12; assay type: cell-based, human
Method: as §1

abcC4 = experiment: DT1 microarray drug screening, drug-treated HepG2: abcC4; assay type: cell-based, human
Method: as §1

abcC5 = experiment: DT1 microarray drug screening, drug-treated HepG2: abcC5; assay type: cell-based, human
Method: as §1

abcD1 = experiment: DT1 microarray drug screening, drug-treated HepG2: abcD1; assay type: cell-based, human
Method: as §1

abcA1 = experiment: DT1 microarray drug screening, drug-treated HepG2: abcA1; assay type: cell-based, human
Method: as §1

abcB4 = experiment: DT1 microarray drug screening, drug-treated HepG2: abcB4; assay type: cell-based, human
Method: as §1

abcB3 = experiment: DT1 microarray drug screening, drug-treated HepG2: abcB3; assay type: cell-based, human
Method: as §1

abcB6 = experiment: DT1 microarray drug screening, drug-treated HepG2: abcB6; assay type: cell-based, human
Method: as §1

abcA3 = experiment: DT1 microarray drug screening, drug-treated HepG2: abcA3; assay type: cell-based, human
Method: as §1

abcG2 = experiment: DT1 microarray drug screening, drug-treated HepG2: abcG2; assay type: cell-based, human
Method: as §1

abcB10 = experiment: DT1 microarray drug screening, drug-treated HepG2: abcB10
abcC7 = experiment: DT1 microarray drug screening, drug-treated HepG2: abcC7; assay type: cell-based, human
Method: as §1

abcD4 = experiment: DT1 microarray drug screening, drug-treated HepG2: abcD4; assay type: cell-based, human
Method: as §1

abcF3 = experiment: DT1 microarray drug screening, drug-treated HepG2: abcF3; assay type: cell-based, human
Method: as §1

abcA6 = experiment: DT1 microarray drug screening, drug-treated HepG2: abcA6; assay type: cell-based, human
Method: as §1

abcC12 = experiment: DT1 microarray drug screening, drug-treated HepG2: abcC12; assay type: cell-based, human
Method: as §1

abcC8 = experiment: DT1 microarray drug screening, drug-treated HepG2: abcC8; assay type: cell-based, human
Method: as §1

abcB9 = experiment: DT1 microarray drug screening, drug-treated HepG2: abcB9; assay type: cell-based, human
Method: as §1

abcA10 = experiment: DT1 microarray drug screening, drug-treated HepG2: abcA10; assay type: cell-based, human
Method: as §1

abcG8 = experiment: DT1 microarray drug screening, drug-treated HepG2: abcG8; assay type: cell-based, human
Method: as §1

abcC6 = experiment: DT1 microarray drug screening, drug-treated HepG2: abcC6; assay type: cell-based, human
Method: as §1

abcB1 = experiment: DT1 microarray drug screening, drug-treated HepG2: abcB1; assay type: cell-based, human
Method: as §1

abcA9 = experiment: DT1 microarray drug screening, drug-treated HepG2: abcA9; assay type: cell-based, human
Method: as §1

abcG4 = experiment: DT1 microarray drug screening, drug-treated HepG2: abcG4; assay type: cell-based, human
Method: as §1

abcC1 = experiment: DT1 microarray drug screening, drug-treated HepG2: abcC1
abcB2 = experiment: DT1 microarray drug screening, drug-treated HepG2: abcB2; assay type: cell-based, human
Method: as §1

abcA7 = experiment: DT1 microarray drug screening, drug-treated HepG2: abcA7; assay type: cell-based, human
Method: as §1

abcB11 = experiment: DT1 microarray drug screening, drug-treated HepG2: abcB11; assay type: cell-based, human
Method: as §1

abcA2 = experiment: DT1 microarray drug screening, drug-treated HepG2: abcA2; assay type: cell-based, human
Method: as §1

abcD3 = experiment: DT1 microarray drug screening, drug-treated HepG2: abcD3; assay type: cell-based, human
Method: as §1

## COc1cccc2c1C(=O)c1c(O)c3c(c(O)c1C2=O)C[C@@](O)(C(=O)CO)C[C@@H]3O[C@H]1C[C@H](N)[C@H](O)[C@H](C)O1 [dox, doxorubicin HCl]
abcB7; 2 h
  relative level of abcB7 gene expression: 0.2622
abcB7; 4 h
  relative level of abcB7 gene expression: 0.1619
abcB7; 8 h
  relative level of abcB7 gene expression: 0.1766
abcG1; 2 h
  relative level of abcG1 gene expression: 5.472
abcG1; 4 h
  relative level of abcG1 gene expression: 3.555
abcG1; 8 h
  relative level of abcG1 gene expression: 3.839
abcA12; 2 h
  relative level of abcA12 gene expression: 5.829
abcA12; 4 h
  relative level of abcA12 gene expression: 3.419
abcA12; 8 h
  relative level of abcA12 gene expression: 4.195
abcC4; 2 h
  relative level of abcC4 gene expression: 2.612
abcC4; 4 h
  relative level of abcC4 gene expression: 2.09
abcC4; 8 h
  relative level of abcC4 gene expression: 2.286
abcC5; 2 h
  relative level of abcC5 gene expression: 10.51
abcC5; 4 h
  relative level of abcC5 gene expression: 6.29
abcC5; 8 h
  relative level of abcC5 gene expression: 6.522
abcD1; 2 h
  relative level of abcD1 gene expression: 4.477
abcD1; 4 h
  relative level of abcD1 gene expression: 3.386
abcD1; 8 h
  relative level of abcD1 gene expression: 3.516
abcA1; 2 h
  relative level of abcA1 gene expression: 3.053
abcA1; 4 h
  relative level of abcA1 gene expression: 1.866
abcA1; 8 h
  relative level of abcA1 gene expression: 2.346
abcB4; 2 h
  relative level of abcB4 gene expression: 9.148
abcB4; 4 h
  relative level of abcB4 gene expression: 5.624
abcB4; 8 h
  relative level of abcB4 gene expression: 6.417
abcB3; 2 h
  relative level of abcB3 gene expression: 6.838
abcB3; 4 h
  relative level of abcB3 gene expression: 4.325
abcB3; 8 h
  relative level of abcB3 gene expression: 4.813
abcB6; 2 h
  relative level of abcB6 gene expression: 5.174
abcB6; 4 h
  relative level of abcB6 gene expression: 3.283
abcB6; 8 h
  relative level of abcB6 gene expression: 3.612
abcA3; 2 h
  relative level of abcA3 gene expression: 8.071
abcA3; 4 h
  relative level of abcA3 gene expression: 4.291
abcA3; 8 h
  relative level of abcA3 gene expression: 5.179
abcG2; 2 h
  relative level of abcG2 gene expression: 2.989
abcG2; 4 h
  relative level of abcG2 gene expression: 2.137
abcG2; 8 h
  relative level of abcG2 gene expression: 2.08
abcB10; 2 h
  relative level of abcB10 gene expression: 2.116
abcB10; 4 h
  relative level of abcB10 gene expression: 1.484
abcB10; 8 h
  relative level of abcB10 gene expression: 1.542
abcC7; 2 h
  relative level of abcC7 gene expression: 7.481
abcC7; 4 h
  relative level of abcC7 gene expression: 4.5794
abcC7; 8 h
  relative level of abcC7 gene expression: 5.093
abcD4; 2 h
  relative level of abcD4 gene expression: 4.361
abcD4; 4 h
  relative level of abcD4 gene expression: 3.103
abcD4; 8 h
  relative level of abcD4 gene expression: 3.194
abcF3; 2 h
  relative level of abcF3 gene expression: 3.921
abcF3; 4 h
  relative level of abcF3 gene expression: 2.795
abcF3; 8 h
  relative level of abcF3 gene expression: 2.793
abcA6; 2 h
  relative level of abcA6 gene expression: 6.045
abcA6; 4 h
  relative level of abcA6 gene expression: 3.367
abcA6; 8 h
  relative level of abcA6 gene expression: 4.296
abcC12; 2 h
  relative level of abcC12 gene expression: 5.226
abcC12; 4 h
  relative level of abcC12 gene expression: 3.532
abcC12; 8 h
  relative level of abcC12 gene expression: 3.976
abcC8; 2 h
  relative level of abcC8 gene expression: 0.3229
abcC8; 4 h
  relative level of abcC8 gene expression: 0.2437
abcC8; 8 h
  relative level of abcC8 gene expression: 0.2255
abcB9; 2 h
  relative level of abcB9 gene expression: 8.388
abcB9; 4 h
  relative level of abcB9 gene expression: 4.897
abcB9; 8 h
  relative level of abcB9 gene expression: 5.523
abcA10; 2 h
  relative level of abcA10 gene expression: 4.82
abcA10; 4 h
  relative level of abcA10 gene expression: 3.419
abcA10; 8 h
  relative level of abcA10 gene expression: 3.793
abcG8; 2 h
  relative level of abcG8 gene expression: 4.697
abcG8; 4 h
  relative level of abcG8 gene expression: 2.811
abcG8; 8 h
  relative level of abcG8 gene expression: 2.9413
abcC6; 2 h
  relative level of abcC6 gene expression: 7.696
abcC6; 4 h
  relative level of abcC6 gene expression: 4.516
abcC6; 8 h
  relative level of abcC6 gene expression: 4.899
abcB1; 2 h
  relative level of abcB1 gene expression: 6.735
abcB1; 4 h
  relative level of abcB1 gene expression: 3.865
abcB1; 8 h
  relative level of abcB1 gene expression: 4.759
abcA9; 2 h
  relative level of abcA9 gene expression: 7.825
abcA9; 4 h
  relative level of abcA9 gene expression: 4.817
abcA9; 8 h
  relative level of abcA9 gene expression: 5.72
abcG4; 2 h
  relative level of abcG4 gene expression: 9.59
abcG4; 4 h
  relative level of abcG4 gene expression: 5.309
abcG4; 8 h
  relative level of abcG4 gene expression: 6.271
abcC1; 2 h
  relative level of abcC1 gene expression: 7.005
abcC1; 4 h
  relative level of abcC1 gene expression: 4.767
abcC1; 8 h
  relative level of abcC1 gene expression: 5.056
abcB2; 2 h
  relative level of abcB2 gene expression: 5.067
abcB2; 4 h
  relative level of abcB2 gene expression: 3.715
abcB2; 8 h
  relative level of abcB2 gene expression: 4.008
abcA7; 2 h
  relative level of abcA7 gene expression: 1.842
abcA7; 4 h
  relative level of abcA7 gene expression: 0.933
abcA7; 8 h
  relative level of abcA7 gene expression: 0.9351
abcB11; 2 h
  relative level of abcB11 gene expression: 5.31
abcB11; 4 h
  relative level of abcB11 gene expression: 3.404
abcB11; 8 h
  relative level of abcB11 gene expression: 3.888
abcA2; 2 h
  relative level of abcA2 gene expression: 6.224
abcA2; 4 h
  relative level of abcA2 gene expression: 2.947
abcA2; 8 h
  relative level of abcA2 gene expression: 4.022
abcD3; 2 h
  relative level of abcD3 gene expression: 2.099
abcD3; 4 h
  relative level of abcD3 gene expression: 1.787
abcD3; 8 h
  relative level of abcD3 gene expression: 1.733
